Laboratory results taken from patent publication US8318808B2, “Zn2+chelating motif-tethered short-chain fatty acids as a novel class of histone deacetylase inhibitors” (The Ohio State University Research Foundation, priority 2007, dated 2012).
Where two headings read alike, the source gives them in different places. Blank lines part the entries; values can stand above or below the compound they belong to.

Legend:
[1] = target: histone deacetylase (HDAC) activity of DU-145 nuclear extract; assay: In vitro HDAC assay (histone deacetylase assay kit, [3H]-acetyl histone H4 peptide); assay type: biochemical
Method: In vitro HDAC assay. HDAC activity was analyzed by using a histone deacetylase assay kit (Upstate Biotechnology, Lake Placid, N.Y.) by following the manufacturer's instruction with slight modifications. […] The release of [^3 H]-acetate into the supernatant was measured to calculate the HDAC activity. Sodium butyrate (0.25-1 mM) was used as a positive control.

[2] = test system: acetylated histones H3 and H4 and p21WAF/CIP1 in DU-145 cells; assay: Western blot of histone acetylation and p21WAF/CIP1 expression in DU-145 cells; assay type: cell-based; conditions: for levels of acetylated histones H3 and H4, and p21WAF/CIP1: 10% FBS, HTPB 0.5-[…], TSA 0.25-0.5 μM, phenylbutyrate 1-5 mM
Method: Western blot analysis. DU-145 cells (1×10^6) treated with HTPB at the indicated concentrations in 10% FBS-supplemented RPMI 1640 medium for 24 h were collected, and sonicated. Protein concentrations of the lysates were determined by using a Bradford protein assay kit (Bio-Rad, Hercules, Calif.); equivalent amounts of proteins from each lysate were resolved in 10% SDS-polyacrylamide gel, and then transferred onto Immobilon-nitrocellulose membranes (Millipore, Bellerica, Mass.) in a semi-dry transfer cell. The transblotted membrane was washed twice with Tris-buffered saline (TBS) containing 0.1% Tween 20 (TBST). After blocking with TBST containing 5% nonfat milk for 40 min, the membrane was incubated with the primary antibody (1:1000 dilution) in TBST-1% nonfat milk at 4° C. overnight. After treatment with the primary antibody, the membrane was washed three times with TBST for a total of 15 min, followed by goat anti-rabbit or anti-mouse IgG-horseradish peroxidase conjugates (diluted 1:3000) for 1 h at room temperature and wash three times with TBST for a total of 1 h. The immunoblots were visualized by enhanced chemiluminescence.
DU-145 cells were exposed to HTPB at 0.5, 1, 2.5 μM, TSA at 0.25 and 0.5 μM, or phenylbutyrate at 1, 2.5, and 5 mM in 10% FBS-supplemented RPMI 1640 medium for 24 h. […] The effect of 1 μM HTPB on these biomarkers approximated that of 0.25 μM TSA, or 2.5 mM phenylbutyrate.

[3] = test system: p38; assay: Phosphorylation level of p38 in PC-3 cells; assay type: cell-based
From the text: (§1) This dephosphorylating effect, however, is kinase-specific.

[4] = Toxicity, body weights and pathological evaluation of treated tumor-bearing mice; assay type: in vivo, NCr athymic nude mice (nu/nu); conditions: for body weights: measured weekly, compound 42 or 44 oral 50 and 100 mg/kg/day, SAHA i.p. 50 mg/kg/day
Method: At the conclusion of the study, complete pathological evaluation of one mouse from each treatment group was performed by board-certified veterinary pathologists at The Ohio State University College of Veterinary Medicine, which included clinical pathology (hematology, serum chemistries) and complete necropsy (gross and microscopic examination of at least 27 different tissues and organs). […] Hematological parameters were within normal limits except for a neutrophilia, which was observed only in mice from both vehicle-treated control groups and the SAHA- and compound 44 (50 mg/kg)-treated groups. Serum chemistry values were consistent with mild dehydration in the vehicle-treated mice, but were within normal limits for all other mice.

[5] = test system: chronic lymphocytic leukemia (TLC-1 transgenic mouse model); assay: Pilot in vivo study in TLC-1 transgenic mouse model; conditions: 100 mg/kg oral gavage, 5 days on/two days off for 4 weeks
[6] = test system: PC-3 xenograft tumors; assay: Growth of established subcutaneous PC-3 xenograft tumors; conditions: for suppression of growth of established PC-3 tumors: oral route, 50 and 100 mg/kg/day (either dose); for reduction in the growth of the tumors vs vehicle-treated control: 50 mg/kg/day
Method: In the in vivo experiment, PC-3 cells, suspended in equal volumes of serum-free medium and Matrigel basement membrane matrix, were injected subcutaneously into the flanks of 5-7 week old male NCr athymic nude mice (nu/nu) (0.5×10^6 cells/0.1 ml/mouse). […] The control group received p.o. or i.p. vehicle only (0.1% methylcellulose/0.05% Tween 80 in water and DMSO, respectively). Treatments continued until the mean tumor volume of the control group reached approximately 1,500 mm^3. Tumors were measured every week using Vernier calipers and their volumes calculated using a standard formula: width^2×length×0.52.

[7] = test system: ERKs; assay: Phosphorylation level of ERKs in PC-3 cells; assay type: cell-based
From the text: as §1

[8] = test system: FAK (focal adhesion kinase); assay: Phosphorylation level of FAK in PC-3 cells; assay type: cell-based
From the text: as §1

[9] = test system: acetylation of histone H-3 in PC-3 xenograft tumors; assay: Western blot of acetylated histone H3 in PC-3 xenograft tumor homogenates; assay type: in vivo, mice; conditions: 28 days
[10] = test system: JNK; assay: Phosphorylation level of JNK in PC-3 cells; assay type: cell-based
From the text: as §1

[11] = test system: 60 cell lines; assay: Sixty-cell line screening by the NCI Developmental Therapeutics Program; assay type: cell-based; conditions: average against all 60 cell lines; read-out: average GI50 (50% inhibition of cell growth)
[12] = test system: PC-3 cells; assay: cells; conditions: Homo sapiens, PC-3, 72 h, read-out: IC50, PC-3 cell proliferation
[13] = test system: DU-145 cells; assay: Apoptosis detection by Cell Death ELISA (nucleosomal DNA); assay type: cell-based
Method: Apoptosis Detection by An Enzyme-Linked Immunosorbent Assay (ELISA). Induction of apoptosis was assessed by using a Cell Death ELISA (Roche Diagnostics, Mannheim, Germany) by following the manufacturer's instruction. This test is based on the quantitative determination of cytoplasmic histone-associated DNA fragments in the form of mononucleosomes and oligonucleosomes after induced apoptotic death. In brief, 1×10^6 DU-145 cells were cultured in a T-75 flask 24 h prior to the experiment. Cells were treated with HTPB at the indicated concentrations in 10% FBS-supplemented RPMI 1640 medium. Both floating and adherent cells were collected, cell lysates equivalent to 2×10^3 cells were used in the ELISA.

[14] = test system: DU-145 cells; assay: Cell viability assay (MTT); assay type: cell-based; conditions: Homo sapiens, 10% FBS-supplemented RPMI-1640, read-out: IC50 in growth inhibition
Method: Cell viability assay. The effect of HTPB on cell viability was assessed by the MTT {[3-(4,5-dimethylthiazol-2-yl)-2,5-diphenyl-2 H-tetrazolium bromide]} assay in 96-well, flat-bottomed plates, in which 4,000 DU-145 cells/well were seeded. Cells were exposed to HTPB at the indicated concentrations in 10% FBS-supplemented RPMI-1640 medium at 37° C. in 5% CO2 for the indicated time. The medium was removed and replaced by 150 μl of 0.5 mg/ml of MTT in RPMI-1640 medium, and cells were incubated in the CO2 incubator at 37° C. for 2 hours. Supernatants were removed from the wells, and the reduced MTT dye was solubilized with 200 μl/well DMSO. Absorbance was determined on a plate reader at 570 nm. Each treatment was repeated in six wells.

[15] = test system: phospho-Akt in PC-3 cells (PTEN-/-); assay: Activation status of Akt in PC-3 cells; assay type: cell-based; conditions: comparable concentrations
From the text: The effect of these agents on the activation status of Akt in PC-3 cells (PTEN^−/−) was also examined. Akt is constitutively activated in PC-3 cells due to lack of functional PTEN, which contributes to the androgen independency and chemotherapeutic resistance of these cells.

[16] = parent short-chain fatty acid, read-out: HDAC inhibition IC50
[17] = DU-145 nuclear extract, read-out: HDAC inhibition IC50
[18] = DU-145 nuclear extract, running text, read-out: HDAC inhibition IC50
[19] = Table 1, representative phenylbutyrate-based HDAC inhibitors, read-out: IC50
[20] = i.p., 50 mg/kg/day, one mouse per group

- IC50 [1, 16]: 400000 nM
Compound: phenylbutyrate
- concentration required for the same effects on histone acetylation and p21WAF/CIP1 expression [2]: at least 2.5 mM
- concentration with approximately equal effect on acetylated histones H3/H4 and p21WAF/CIP1 ([2]; 24 h): 2500 µM
- levels of acetylated histones H3 and H4, and p21WAF/CIP1 ([2]; 24 h): elevated levels

Compound: CC(/C=C/C(=O)NO)=C\[C@@H](C)C(=O)c1ccc(N(C)C)cc1 [TSA, trichostatin A]
- concentration with approximately equal effect on acetylated histones H3/H4 and p21WAF/CIP1 ([2]; 24 h): 0.25 µM
- levels of acetylated histones H3 and H4, and p21WAF/CIP1 ([2]; 24 h): elevated levels

- IC50 [1, 17]: 400 nM
- drop in HDAC inhibitory potency when hydroxamate of compound 19 is replaced by phenylenediamine ([1]; relative to compound 19): 10 fold
Compound: Nc1ccccc1NC(=O)c1ccc(NC(=O)CCCc2ccccc2)cc1 [compound 55, N-(2-Amino-phenyl)-4-(4-phenyl-butyrylamino)-benzamide]

Compound: CC(C)C(C(=O)Nc1ccc(C(=O)NO)cc1)c1ccccc1 (stereo not drawn) [compound 42, N-Hydroxy-4-(3-methyl-2-phenyl-butyrylamino)-benzamide]
- phosphorylation level of p38 [3]: remained unaffected
- toxicity in tumor-bearing mice ([4]; 28-day course at 50 or 100 mg/kg/day): no demonstrable toxicity
- body weights [4]: stable throughout the study
- overt toxicity (body weights and pathological examination) ([4]; oral, 100 mg/kg/day): absence of overt toxicity
- survival [5]: trend toward improved survival
- toxicity [5]: no notable toxicity
- oral bioavailability ([6]; mouse, in vivo, po): orally bioavailable
- suppression of growth of established PC-3 tumors [6]: effective
- reduction in the growth of the tumors vs vehicle-treated control ([6]; oral): 70.4%
- reduction in PC-3 tumor growth ([6]; oral, 100 mg/kg/day): 91.7%
- phosphorylation level of ERKs [7]: diminished in a dose-dependent manner
- phosphorylation level of FAK [8]: diminished in a dose-dependent manner
- acetylation level of histone H3 in PC-3 tumors ([9]; oral, 50 or 100 mg/kg/day): significant increase
- phosphorylation level of JNK [10]: remained unaffected
- GI50 [11]: 200 nM
- IC50 [12]: 600 nM

- IC50 [1, 17]: 44 nM
- IC50 [1, 18]: 44 nM
- IC50 [1, 19]: 44 nM
- IC50 [14]: 500 to 1000 nM
Compound: O=C(CCCc1ccccc1)Nc1ccc(C(=O)NO)cc1 [compound 19, N-Hydroxy-4-(4-phenylbutyrylamino)-benzamide]
- drug concentration above which extensive apoptosis occurred ([13]; 24 h): exceeded 1 μM
- apoptosis (DNA fragmentation) ([13]; 24 h exposure): sensitized DU-145 cells to apoptosis in a dose-dependent manner
- concentration causing hyperacetylation of histones H-3 and H-4 (as low as) [2]: ≤ 0.5 µM
- concentration at which p21WAF/CIP1 level increased substantially (as low as) ([2]; 24 h): ≤ 0.5 µM
- concentration with approximately equal effect on acetylated histones H3/H4 and p21WAF/CIP1 ([2]; 24 h): 1 µM
- levels of acetylated histones H3 and H4, and p21WAF/CIP1 ([2]; 24 h): elevated levels

Compound: O=C(CCCCCCC(=O)Nc1ccccc1)NO [SAHA, suberoylanilide hydroxamic acid, reference compound]
- gross pathologic abnormalities at necropsy [4, 20]: small adhesions in the peritoneum
- hematological parameters [4, 20]: neutrophilia
- body weights [4]: stable throughout the study
- reduction in the growth of the tumors vs vehicle-treated control ([6]; i.p.): 69.9%
- acetylation level of histone H3 in PC-3 tumors ([9]; i.p., 50 mg/kg/day): significant increase
- effect on phospho-Akt [15]: no appreciable effect

Compound: CC(C)(CCc1ccccc1)C(=O)Nc1ccc(C(=O)NO)cc1 [compound 44, 4-(2,2-Dimethyl-4-phenyl-butyrylamino)-N-hydroxy-benzamide]
- body weights [4]: stable throughout the study
- hematological parameters ([4]; oral, 50 mg/kg, one mouse per group): neutrophilia
- IC50 [1, 18]: 32 nM
- suppression of growth of established PC-3 tumors [6]: effective
- IC50 [12]: 800 nM

- IC50 [1, 19]: 38 nM
Compound: CC[C@@H](C(=O)Nc1ccc(C(=O)NO)cc1)c1ccccc1 [compound 61, N-hydroxy-4-[2-(R)-phenylbutyrylamino]-benzamide]

- IC50 [1, 17]: 5000 nM
Compound: CCCC(CCC)C(=O)Nc1ccc(CCC(=O)NO)cc1 [compound 8]

- IC50 [1, 16]: 400000 nM
Compound: CCCC(CCC)C(=O)O [valproic acid, reference compound]
